Laboratory results: patent US10654853B2, “Spiro-condensed pyrrolidine derivatives as deubiquitylating enzymes (DUB) inhibitors” (MISSION THERAPEUTICS LIMITED, priority 2016, dated 2020)
pIC50: −log10 of the molar value.

Biological target: Cezanne 1 (Homo sapiens (Human), UniProt Q6GQQ9)
Assay: Cezanne 1 biochemical IC50 assay (fluorescence polarisation, TAMRA labelled peptide linked to ubiquitin)
Details: Cezanne 1 biochemical IC50 assay; 30 min pre-incubation, read after 2 hr at room temperature; read-out: IC50 range
In short: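 FLAG-tagged Cezanne 1, expressed in HEK293T and FLAG-purified, was preincubated with compound for 30 min at room temperature in Tris pH 7.5 buffer with Tween 20, BSA and β-mercaptoethanol. Reactions were started with 50 nM TAMRA-peptide isopeptide-linked to ubiquitin. Fluorescence polarisation (ex 540/em 590 nm) was read immediately and after 2 h.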

Sequence of Cezanne 1 (Q6GQQ9 whole entry): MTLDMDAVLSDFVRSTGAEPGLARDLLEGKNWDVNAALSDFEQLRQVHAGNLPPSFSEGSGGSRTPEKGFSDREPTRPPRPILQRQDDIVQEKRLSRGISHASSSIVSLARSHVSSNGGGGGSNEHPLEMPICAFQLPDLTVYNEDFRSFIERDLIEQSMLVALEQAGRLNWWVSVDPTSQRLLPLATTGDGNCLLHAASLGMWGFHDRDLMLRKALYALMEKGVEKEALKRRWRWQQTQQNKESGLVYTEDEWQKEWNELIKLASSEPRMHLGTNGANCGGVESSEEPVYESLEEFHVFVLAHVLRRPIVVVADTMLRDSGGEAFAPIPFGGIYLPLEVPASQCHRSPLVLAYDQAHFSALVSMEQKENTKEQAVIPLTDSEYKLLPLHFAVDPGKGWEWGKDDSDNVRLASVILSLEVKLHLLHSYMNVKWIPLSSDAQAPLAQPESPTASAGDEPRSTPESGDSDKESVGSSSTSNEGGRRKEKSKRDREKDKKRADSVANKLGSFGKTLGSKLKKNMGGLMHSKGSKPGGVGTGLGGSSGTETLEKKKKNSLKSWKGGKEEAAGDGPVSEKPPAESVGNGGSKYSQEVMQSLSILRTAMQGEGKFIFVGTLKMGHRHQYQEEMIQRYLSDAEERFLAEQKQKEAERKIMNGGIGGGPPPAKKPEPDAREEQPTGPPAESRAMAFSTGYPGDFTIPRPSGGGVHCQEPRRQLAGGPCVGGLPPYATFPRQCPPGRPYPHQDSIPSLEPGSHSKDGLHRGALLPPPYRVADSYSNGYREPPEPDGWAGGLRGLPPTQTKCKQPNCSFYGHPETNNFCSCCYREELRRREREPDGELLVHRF

| Structure (SMILES) | pIC50 |
| --- | --- |
| CNC(=O)c1ccc(-c2ccc3c(c2)CC2(CCN(C#N)C2)C(=O)N3)cn1 (centres unmarked) [Example 98, 5-(1-Cyano-2′-oxo-1′,4′-dihydro-2′H-spiro[pyrrolidine-3,3′-quinolin]-6′-yl)-N-methylpicolinamide] | 6.00 to 7.00 |
| CNC(=O)c1ccc(-c2ccc3c(c2)CC2(CCN(C#N)C2)C(=O)N3)cc1 (centres unmarked) [Example 100, 4-(1-Cyano-2′-oxo-1′,4′-dihydro-2′H-spiro[pyrrolidine-3,3′-quinolin]-6′-yl)-N-methylbenzamide] | 6.00 to 7.00 |
| COc1ccc(C(C)C)cc1-c1ccc2c(c1)CC1(CCN(C#N)C1)C(=O)N2 (centres unmarked) [Example 101, 6′-(5-Isopropyl-2-methoxyphenyl)-2′-oxo-1′,4′-dihydro-2′H-spiro[pyrrolidine-3,3′-quinoline]-1-carbonitrile] | 6.00 to 7.00 |
| N#CN1CCC2(Cc3cc(-c4cccc(OCc5ccccc5Cl)c4)ccc3NC2=O)C1 (centres unmarked) [Example 102, 6′-(3-((2-Chlorobenzyl)oxy)phenyl)-2′-oxo-1′,4′-dihydro-2′H-spiro[pyrrolidine-3,3′-quinoline]-1-carbonitrile] | 5.00 to 6.00 |
| COc1ccc(-c2ccc3c(c2)CC2(CCN(C#N)C2)C(=O)N3)cn1 (centres unmarked) [Example 103, 6′-(6-Methoxypyridin-3-yl)-2′-oxo-1′,4′-dihydro-2′H-spiro[pyrrolidine-3,3′-quinoline]-1-carbonitrile] | 6.00 to 7.00 |
| CC(C)Oc1ccc(F)cc1-c1ccc2c(c1)CC1(CCN(C#N)C1)C(=O)N2 (centres unmarked) [Example 104, 6′-(5-Fluoro-2-isopropoxyphenyl)-2′-oxo-1′,4′-dihydro-2′H-spiro[pyrrolidine-3,3′-quinoline]-1-carbonitrile] | 6.00 to 7.00 |
| CN1CCN(C(=O)c2ccc(-c3ccc4c(c3)CC3(CCN(C#N)C3)C(=O)N4)cc2)CC1 (centres unmarked) [Example 106, 6′-(4-(4-Methylpiperazine-1-carbonyl)phenyl)-2′-oxo-1′,4′-dihydro-2′H-spiro[pyrrolidine-3,3′-quinoline]-1-carbonitrile] | 5.00 to 6.00 |
| Cn1ncc2cc(-c3ccc4c(c3)CC3(CCN(C#N)C3)C(=O)N4)ccc21 (centres unmarked) [Example 107, 6′-(1-Methyl-1H-indazol-5-yl)-2′-oxo-1′,4′-dihydro-2′H-spiro[pyrrolidine-3,3′-quinoline]-1-carbonitrile] | 6.00 to 7.00 |
| Cc1ccc2[nH]ncc2c1-c1ccc2c(c1)CC1(CCN(C#N)C1)C(=O)N2 (centres unmarked) [Example 108, 6′-(5-Methyl-1H-indazol-4-yl)-2′-oxo-1′,4′-dihydro-2′H-spiro[pyrrolidine-3,3′-quinoline]-1-carbonitrile] | 6.00 to 7.00 |
| N#CN1CCC2(Cc3cc(-c4cccc(NS(=O)(=O)C5CC5)c4)ccc3NC2=O)C1 (centres unmarked) [Example 109, N-(3-(1-Cyano-2′-oxo-1′,4′-dihydro-2′H-spiro[pyrrolidine-3,3′-quinolin]-6′-yl)phenyl)cyclopropanesulfonamide] | 6.00 to 7.00 |
| CN(C)C(=O)c1ccc(-c2ccc3c(c2)CC2(CCN(C#N)C2)C(=O)N3)cc1 (centres unmarked) [Example 110, 4-(1-Cyano-2′-oxo-1′,4′-dihydro-2′H-spiro[pyrrolidine-3,3′-quinolin]-6′-yl)-N,N-dimethylbenzamide] | 6.00 to 7.00 |
| N#CN1CCC2(Cc3cc(-c4cncnc4)ccc3NC2=O)C1 (centres unmarked) [Example 111, 2′-Oxo-6′-(pyrimidin-5-yl)-1′,4′-dihydro-2′H-spiro[pyrrolidine-3,3′-quinoline]-1-carbonitrile] | 6.00 to 7.00 |
| CC(=O)Nc1cccc(-c2ccc3c(c2)CC2(CCN(C#N)C2)C(=O)N3)c1 (centres unmarked) [Example 112, N-(3-(1-Cyano-2′-oxo-1′,4′-dihydro-2′H-spiro[pyrrolidine-3,3′-quinolin]-6′-yl)phenyl)acetamide] | 6.00 to 7.00 |
| CC(=O)Nc1ccc(-c2ccc3c(c2)CC2(CCN(C#N)C2)C(=O)N3)cc1 (centres unmarked) [Example 113, N-(4-(1-Cyano-2′-oxo-1′,4′-dihydro-2′H-spiro[pyrrolidine-3,3′-quinolin]-6′-yl)phenyl)acetamide] | 6.00 to 7.00 |
| N#CN1CCC2(Cc3cc(-c4ccc(S(=O)(=O)N5CCOCC5)cc4)ccc3NC2=O)C1 (centres unmarked) [Example 116, 6′-(4-(Morpholinosulfonyl)phenyl)-2′-oxo-1′,4′-dihydro-2′H-spiro[pyrrolidine-3,3′-quinoline]-1-carbonitrile] | 6.00 to 7.00 |
| N#CN1CCC2(Cc3cc(-c4cccc(N5CCCCC5)c4)ccc3NC2=O)C1 (centres unmarked) [Example 118, 2′-Oxo-6′-(3-(piperidin-1-yl)phenyl)-1′,4′-dihydro-2′H-spiro[pyrrolidine-3,3′-quinoline]-1-carbonitrile] | 6.00 to 7.00 |
| CN1CCN(c2ccc(-c3ccc4c(c3)CC3(CCN(C#N)C3)C(=O)N4)cc2)CC1 (centres unmarked) [Example 126, 6′-(4-(4-Methylpiperazin-1-yl)phenyl)-2′-oxo-1′,4′-dihydro-2′H-spiro[pyrrolidine-3,3′-quinoline]-1-carbonitrile] | 6.00 to 7.00 |

Next, values leading:

| pIC50 | Structure (SMILES) |
| --- | --- |
| 6.00 to 7.00 | CC(=O)Nc1ccccc1-c1ccc2c(c1)CC1(CCN(C#N)C1)C(=O)N2 (centres unmarked) [Example 119, N-(2-(1-Cyano-2′-oxo-1′,4′-dihydro-2′H-spiro[pyrrolidine-3,3′-quinolin]-6′-yl)phenyl)acetamide] |
| 6.00 to 7.00 | N#CN1CCC2(Cc3cc(-c4ccc(C(=O)N5CCOCC5)cc4)ccc3NC2=O)C1 (centres unmarked) [Example 120, 6′-(4-(Morpholine-4-carbonyl)phenyl)-2′-oxo-1′,4′-dihydro-2′H-spiro[pyrrolidine-3,3′-quinoline]-1-carbonitrile] |
| 6.00 to 7.00 | N#CN1CCC2(Cc3cc(-c4cccc(S(=O)(=O)N5CCOCC5)c4)ccc3NC2=O)C1 (centres unmarked) [Example 121, 6′-(3-(Morpholinosulfonyl)phenyl)-2′-oxo-1′,4′-dihydro-2′H-spiro[pyrrolidine-3,3′-quinoline]-1-carbonitrile] |
| 5.00 to 6.00 | Cn1cc(-c2ccc3c(c2)CC2(CCN(C#N)C2)C(=O)N3)ccc1=O (centres unmarked) [Example 122, 6′-(1-Methyl-6-oxo-1,6-dihydropyridin-3-yl)-2′-oxo-1′,4′-dihydro-2′H-spiro[pyrrolidine-3,3′-quinoline]-1-carbonitrile] |
| 6.00 to 7.00 | Cc1nc2cc(-c3ccc4c(c3)CC3(CCN(C#N)C3)C(=O)N4)ccc2s1 (centres unmarked) [Example 123, 6′-(2-Methylbenzo[d]thiazol-5-yl)-2′-oxo-1′,4′-dihydro-2′H-spiro[pyrrolidine-3,3′-quinoline]-1-carbonitrile] |
| 6.00 to 7.00 | Cc1noc(C)c1-c1ccc2c(c1)CC1(CCN(C#N)C1)C(=O)N2 (centres unmarked) [Example 124, 6′-(3,5-Dimethylisoxazol-4-yl)-2′-oxo-1′,4′-dihydro-2′H-spiro[pyrrolidine-3,3′-quinoline]-1-carbonitrile] |
| 6.00 to 7.00 | N#CN1CCC2(Cc3cc(-c4cc(OC(F)(F)F)ccc4Cl)ccc3NC2=O)C1 (centres unmarked) [Example 125, 6′-(2-Chloro-5-(trifluoromethoxy)phenyl)-2′-oxo-1′,4′-dihydro-2′H-spiro[pyrrolidine-3,3′-quinoline]-1-carbonitrile] |
| 6.00 to 7.00 | N#CN1CCC2(Cc3cc(-c4ccc(C(=O)NCc5ccccc5)cc4)ccc3NC2=O)C1 (centres unmarked) [Example 127, N-Benzyl-4-(1-cyano-2′-oxo-1′,4′-dihydro-2′H-spiro[pyrrolidine-3,3′-quinolin]-6′-yl)benzamide] |
| 6.00 to 7.00 | Cc1n[nH]cc1-c1ccc2c(c1)CC1(CCN(C#N)C1)C(=O)N2 (centres unmarked) [Example 128, 6′-(3-Methyl-1H-pyrazol-4-yl)-2′-oxo-1′,4′-dihydro-2′H-spiro[pyrrolidine-3,3′-quinoline]-1-carbonitrile] |
